Assay results: patent US10683311B2 (priority 2015, dated 2020)

test: log P by HPLC on reversed-phase column (C18), EEC Directive 79/831 Annex V.A8; format: physicochemical; details: Method A: 40° C., 0.1% aqueous formic acid and acetonitrile
Protocol: In table 1, the log P values were determined in accordance with EEC Directive 79/831 Annex V.A8 by HPLC (High Performance Liquid Chromatography) on a reversed-phase column (C18), using the methods described below:
Method A: temperature: 40° C.; mobile phases: 0.1% aqueous formic acid and acetonitrile; linear gradient from 10% acetonitrile to 95% acetonitrile;
Method B: temperature: 40° C.; mobile phases: 0.001 molar ammonium acetate solution in water and acetonitrile; linear gradient from 10% acetonitrile to 95% acetonitrile.
Calibration was carried out using unbranched alkan-2-ones (comprising 3 to 16 carbon atoms) with known log P values (determination of the log P values by the retention times using linear interpolation between two successive alkanones). lambda-max-values were determined using UV-spectra from 200 nm to 400 nm and the peak values of the chromatographic signals.

Going from `CC[Si](CC)(CC)c1ccccc1Oc1cnc2ccccc2n1` [I.074] to `CC[Si](C)(C)c1ccccc1Oc1cnc2ccccc2n1` [I.076], the logP falls from 6.43 to 5.48.

Going from `Cc1c(Nc2ccccc2[Si](C)(C)C)cc2ccccc2[n+]1[O-]` [I.058] to `Cc1nc2ccccc2cc1Nc1ccc(F)cc1[Si](C)(C)C` [I.055], the logP falls from 3.62 to 2.63.

Going from `C[Si](C)(c1ccccc1)c1ccccc1Cc1cnc2cccnc2c1` [I.141] to `Cc1nc2ccccc2cc1Cc1ccccc1[Si](C)(C)c1ccccc1` [I.140], the logP falls from 4.14 to 2.88.

First: Cc1nc2ccccc2cc1Cc1ccccc1[Si](C)(C)C [I.139]
Second: CCN(c1ccccc1[Si](C)(C)C)c1cc2ccccc2nc1C [I.056]
The logP of the first is lower: 2.76 for the first, 3.16 for the second.

`Cc1nc2c(F)c(F)ccc2nc1Oc1cccc(Cl)c1[Si](C)(C)O` [I.090] and `Cc1nc2c(F)c(F)ccc2cc1Oc1cccc(Cl)c1[Si](C)(C)O` [I.034] are within 0.2 log units of each other in logP: 3.94 for the first, 3.83 for the second.

Going from `Cc1nc2ccccc2cc1Oc1cccc(F)c1[SiH](C)C` [I.053] to `Cc1nc2ccccc2cc1Oc1cccc(Cl)c1[Si](C)(C)O` [I.051], the logP falls from 4.56 to 2.80.

`Cc1nc2c(F)c(F)ccc2cc1Cc1ccccc1[Si](C)(C)C` [I.040] and `C[Si](C)(C)c1ccccc1Oc1cnc2c(F)c(F)ccc2c1` [I.020] are within 0.2 log units of each other in logP: 5.54 for the first, 5.39 for the second.

First: C[Si](C)(C)c1ccccc1Oc1cnc2c(F)c(F)ccc2n1 [I.079]
Second: C[Si](C)(O)c1ccccc1Oc1cnc2c(F)c(F)ccc2n1 [I.081]
The logP of the first is higher: 5.28 for the first, 3.23 for the second.

First: C[Si](C)(C)c1c(F)cccc1Oc1cc2ccccc2nc1Cl [I.063]
Second: C=Cc1nc2ccccc2cc1Oc1cccc(F)c1[Si](C)(C)C [I.044]
The logP of the first is lower: 5.90 for the first, 6.30 for the second.

First: C=C[Si](C)(C)c1c(F)cccc1Oc1cnc2ccccc2c1 [I.006]
Second: C[Si](C)(O)c1ccccc1Oc1cnc2ccccc2c1 [I.002]
The logP of the first is higher: 5.24 for the first, 2.82 for the second.

Compared with `C[Si](C)(C)c1ccccc1Oc1cnc2ccnn2c1` [I.123], `C[Si](C)(C)c1ccccc1Oc1cnc2c(F)cnn2c1` [I.129] is higher in logP: 4.11 for the first, 4.56 for the second.

Compared with `C[Si](C)(F)c1c(F)cccc1Oc1cnc2c(F)c(F)ccc2n1` [I.083], `Cc1nc2c(F)c(F)ccc2nc1Oc1cccc(F)c1[Si](C)(C)F` [I.092] is lower in logP: 5.01 for the first, 4.75 for the second.

First: C[Si](C)(O)c1c(F)cccc1Oc1cnc2ccsc2c1 [I.117]
Second: C[Si](C)(C)c1c(F)cccc1Oc1cnc2sccc2c1 [I.120]
The logP of the first is lower: 2.80 for the first, 5.45 for the second.

First: CC(C)(C)[Si](C)(C)c1ccccc1Oc1cnc2ccccc2n1 [I.072]
Second: Cc1nc2ccccc2cc1Oc1ccccc1[Si](C)(C)O [I.048]
The logP of the first is higher: 6.30 for the first, 2.16 for the second.

First: Cc1nc2c(F)c(F)ccc2nc1Oc1ccc(Cl)cc1[Si](C)(C)O [I.102]
Second: Cc1nc2c(F)c(F)ccc2nc1Oc1cc(F)ccc1[Si](C)(C)O [I.105]
The logP of the first is higher: 4.01 for the first, 3.58 for the second.

First: C[Si](C)(O)c1ccccc1Oc1cnc2c(F)c(F)ccc2c1 [I.023]
Second: C[Si](C)(O)c1c(F)cccc1Oc1cnc2c(F)c(F)ccc2c1 [I.022]
The logP of the first is higher: 3.27 for the first, 2.35 for the second.

`Cc1nc2c(F)c(F)ccc2cc1Oc1ccc(F)cc1[Si](C)(C)O` [I.037] and `Cc1nc2c(F)c(F)ccc2cc1Oc1cccc(F)c1[Si](C)(C)O` [I.025] are the same in logP: 3.55 for the first, 3.55 for the second.

Going from `Cc1nc2ccccc2cc1Oc1ccc(-c2ccsc2)cc1[Si](C)(C)C` [I.138] to `C[Si](C)(C)c1c(F)cccc1Oc1cc2ccccc2nc1-c1ccsc1` [I.067], the logP rises from 5.85 to 6.66.

Compared with `Cc1nc2c(F)c(F)ccc2nc1Oc1ccccc1[Si](C)(C)O` [I.087], `Cc1cccc([Si](C)(C)O)c1Oc1nc2ccc(F)c(F)c2nc1C` [I.104] is higher in logP: 3.35 for the first, 3.73 for the second.

`Cc1nc2c(F)c(F)ccc2nc1Oc1cc(F)ccc1[Si](C)(C)C` [I.108] and `Cc1nc2ccccc2nc1Oc1cccc(F)c1[Si](C)(C)C` [I.111] are within 0.2 log units of each other in logP: 5.57 for the first, 5.45 for the second.

Compared with `CSc1nc2ccccc2cc1Oc1cccc(F)c1[Si](C)(C)C` [I.064], `Cc1c(Oc2cccc(F)c2[Si](C)(C)C)cnc2ccccc12` [I.042] is lower in logP: 6.79 for the first, 5.62 for the second.

Compared with `C[Si](C)(C)c1c(F)cccc1Oc1cc2ccccc2nc1-c1ccccc1` [I.045], `C[Si](C)(c1ccc(Oc2ccccc2)cc1)c1ccccc1Cc1cnc2ccccc2c1` [I.016] is lower in logP: 6.40 for the first, 5.62 for the second.

First: CC[Si](C)(C)c1c(C#N)cccc1Oc1cc2ccc(F)c(F)c2nc1C [I.039]
Second: CC[Si](C)(C)c1c(C#N)cccc1Oc1c(C)nc2c(F)c(F)ccc2c1[Si](C)(C)CC [I.043]
The logP of the first is lower: 5.22 for the first, 7.36 for the second.

With `C[Si](C)(c1ccccc1Oc1cnc2c(F)c(F)ccc2n1)C1CCCCC1` [I.080] the logP was 6.94.

same assay, conditions: Method B: 40° C., 0.001 molar ammonium acetate solution in water and acetonitrile

With `C[Si](C)(O)c1ccccc1Nc1cnc2ccccc2c1` [I.009] the logP was 3.20.

same assay, conditions: logP Method A

Compared with `C[Si](C)(Cc1ccccc1)c1ccccc1O` [IXa.06], `Cc1nc2ccccc2cc1Oc1ccccc1N` [IVa.07] is lower in logP: 5.14 for the first, 1.66 for the second.

Compared with `CSc1nc2ccccc2cc1Oc1cccc(F)c1` [VIIa.03], `Cc1nc2ccccc2cc1Oc1cccc(F)c1` [VIIa.04] is lower in logP: 4.92 for the first, 2.96 for the second.

Going from `Cc1nc2c(F)c(F)ccc2nc1Oc1cccc(F)c1Br` [IIb.16] to `Cc1nc2c(F)c(F)ccc2nc1Oc1c(F)cccc1Br` [IIb.04], the logP falls from 4.44 to 2.67.

First: CC1(C)OB(Cc2ccccc2[Si](C)(C)C)OC1(C)C [XIIa.01]
Second: Cc1nc2c(F)c(F)ccc2nc1Oc1ccccc1Br [IIb.02]
The logP of the first is higher: 5.68 for the first, 4.38 for the second.

Going from `O=[N+]([O-])c1ccccc1Oc1cnc2c(F)c(F)ccc2c1` [Va.03] to `O=[N+]([O-])c1c(F)cccc1Oc1cnc2c(F)c(F)ccc2c1` [Va.01], the logP rises from 3.06 to 3.35.

`Fc1cccc(Oc2cnc3c(F)c(F)ccc3n2)c1Br` [IIb.15] and `Fc1ccc2nc(Oc3ccccc3Br)cnc2c1F` [IIb.01] are within 0.2 log units of each other in logP: 3.97 for the first, 3.92 for the second.

First: Cc1nc2c(F)c(F)ccc2cc1Oc1cc([N+](=O)[O-])ccc1Br [II.06A]
Second: Cc1nc2c(F)c(F)ccc2cc1Oc1cccc(F)c1[N+](=O)[O-] [Va.02]
The logP of the first is higher: 4.04 for the first, 3.64 for the second.

First: Cc1nc2c(F)c(F)ccc2nc1Oc1cccc(OC(F)(F)F)c1Br [IIb.23]
Second: Cc1nc2c(F)c(F)ccc2nc1Oc1ccc(F)cc1Br [IIb.10]
The logP of the first is higher: 5.08 for the first, 4.54 for the second.

Going from `Cc1ccc(Oc2nc3ccc(F)c(F)c3nc2C)c(Br)c1` [IIb.09] to `Cc1nc2ccccc2cc1Oc1cccc(F)c1N` [IVa.02], the logP falls from 4.92 to 2.15.

Compared with `O=[N+]([O-])c1c(F)cccc1Oc1cnc2ccccc2c1` [Va.05], `O=[N+]([O-])c1ccccc1Oc1cnc2ccccc2c1` [Va.07] is lower in logP: 3.13 for the first, 1.62 for the second.

`Fc1cccc(Oc2cnc3ccccc3n2)c1Br` [IIb.14] showed a logP of 3.78.

same assay, conditions: reversed-phase HPLC column (C18), Method A: 40° C., 0.1% aqueous formic acid and acetonitrile

First: Fc1ccc(Oc2cnc3c(Cl)cccc3c2)c(Cl)c1 [IIa.23, 8-chloro-3-(2-chloro-4-fluorophenoxy)quinoline]
Second: Fc1cccc2cc(Oc3ccccc3Br)cnc12 [IIa.04, 3-(2-bromophenoxy)-8-fluoroquinoline]
The chromatographic logP of the first is higher: 4.11 for the first, 3.61 for the second.

Going from `Fc1ccc2cc(Oc3ccccc3Br)cnc2c1F` [IIa.06, 3-(2-bromophenoxy)-7,8-difluoroquinoline] to `Brc1ccccc1Oc1cnc2ccccc2c1` [IIa.03, 3-(2-bromophenoxy)quinoline], the chromatographic logP falls from 3.92 to 3.47.

Going from `COc1cccc(Oc2cc3ccc(F)c(F)c3nc2C)c1Br` [IIa.14, 3-(2-bromo-3-methoxyphenoxy)-7,8-difluoro-2-methylquinoline] to `Cc1nc2c(F)c(F)ccc2cc1Oc1cccc(Cl)c1Br` [IIa.20, 3-(2-bromo-3-chlorophenoxy)-7,8-difluoro-2-methylquinoline], the chromatographic logP rises from 4.11 to 4.72.

`Fc1cccc(Oc2cc3ccccc3nc2C(F)F)c1Br` [IIa.19, 3-(2-bromo-3-fluorophenoxy)-2-(difluoromethyl)quinoline] and `Cc1nc2c(F)cccc2cc1Oc1ccccc1Br` [IIa.05, 3-(2-bromophenoxy)-8-fluoro-2-methylquinoline] are within 0.2 log units of each other in chromatographic logP: 3.99 for the first, 3.96 for the second.

Compared with `C[Si](C)(c1ccc(Cl)cc1)c1ccccc1CBr` [XIa.06, [2-(bromomethyl)phenyl](4-chlorophenyl)dimethylsilane], `Fc1cccc(Oc2cc3ccccc3nc2Cl)c1` [VIIa.01, 2-chloro-3-(3-fluorophenoxy)quinoline] is lower in chromatographic logP: 5.94 for the first, 3.99 for the second.

same assay, conditions: reversed-phase HPLC column (C18), Method B: 40° C., 0.001 molar ammonium acetate solution in water and acetonitrile

In the case of `Brc1c(COC2CCCCO2)cccc1Nc1cnc2ccccc2c1` (stereo not drawn) [II.04A, N-{2-bromo-3-[(tetrahydro-2H-pyran-2-yloxy)methyl]phenyl}quinolin-3-amine], the chromatographic logP is reported as 4.13.

same assay, conditions: reversed-phase HPLC column (C18), logP Method A

First: Fc1cccc(Nc2cc3ccccc3nc2C(F)F)c1 [VII.03A]
Second: Fc1cccc(Oc2cc3ccccc3nc2Cl)c1 [VIIa.01, 2-chloro-3-(3-fluorophenoxy)quinoline]
The chromatographic logP of the first is lower: 3.68 for the first, 3.99 for the second.

`CC[Si](CC)(CC)c1ccccc1O` [IX.01A] and `CC[Si](CC)(CC)c1c(O)cccc1F` [IX.02A] are within 0.2 log units of each other in chromatographic logP: 4.72 for the first, 4.69 for the second.

Going from `O=C(c1cccc(F)c1)c1cnc2ccccc2c1` [VII.02A] to `OC(c1cccc(F)c1)c1cnc2ccccc2c1` (stereo not drawn) [VII.01A], the chromatographic logP falls from 2.73 to 1.54.

Compared with `Cc1nc2ccccc2cc1Oc1cccc(CCO)c1Br` [II.03A], `C[Si](C)(c1ccc(Cl)cc1)c1ccccc1CBr` [XIa.06, [2-(bromomethyl)phenyl](4-chlorophenyl)dimethylsilane] is higher in chromatographic logP: 2.14 for the first, 5.94 for the second.

same assay, conditions: reversed-phase HPLC column (C18), logP Method B

First: Ic1c(COC2CCCCO2)cccc1Oc1cnc2ccccc2c1 (stereo not drawn) [II.05A]
Second: Brc1c(COC2CCCCO2)cccc1Nc1cnc2ccccc2c1 (stereo not drawn) [II.04A, N-{2-bromo-3-[(tetrahydro-2H-pyran-2-yloxy)methyl]phenyl}quinolin-3-amine]
The chromatographic logP of the first is higher: 4.56 for the first, 4.13 for the second.
